Data as given in patent US20260022095A1, “COMPOUNDS USEFUL FOR THE PREPARATION OF VARIOUS AGROCHEMICALS AND MARKERS THEREOF” (ADAMA AGAN LTD., priority 2021, published 2026).

Assay: Sunlight exposure of buffered aqueous Tetflupyrolimet solutions, Storage Marker formation by HPLC-MS
Assay type: physicochemical
Conditions: natural sunlight approximately 2 months; for concentration of the Storage Marker as compared to the solution buffered at pH=7: quartz tube
Method: Three lots of about 50 mg of Tetflupyrolimet were each suspended in about 2 ml of a 2% solution of acetonitrile in water, and sonicated for about 20 minutes.
Into each, about 0.1 ml of a different buffer was added, pH=4, pH=7 and pH=10 respectively.
The three solutions were each filtered and introduced to quartz tubes and exposed to natural sunlight for approximately 2 months.
• Column: Agilent Zorbax Eclipse XDB C18, 150×4.6 mm ID, 5.0 μm • Injection volume: 5 μL • Oven temperature: 40° C. • Detector: UV, □=230, 250, 280 nm • Solvent delivery system conditions at flow rate of 1.0 ml/min: […]

CN1C[C@H](c2cccc(C(F)(F)F)c2)[C@@H](C(=O)Nc2ccccc2F)C1=O [Tetflupyrolimet, (3S,4S)—N-(2-fluorophenyl)-1-methyl-2-oxo-4-(3-(trifluoromethyl)phenyl) pyrrolidine-3-carboxamide]
formation of Storage Marker (HPLC-MS) (2% acetonitrile in water, buffered at pH=4, pH=7 and pH=10, quartz tubes): formation of Storage Marker in each solution | concentration of the Storage Marker as compared to the solution buffered at pH=7 (solution buffered at pH 4): approximately an order of magnitude higher concentration of the Storage Marker | concentration of the Storage Marker as compared to the solution buffered at pH=7 (solution buffered at pH 10): approximately an order of magnitude higher concentration of the Storage Marker
